From publication PMC5641094, “A peptide antagonist of Prep1-p160 interaction improves ceramide-induced insulin resistance in skeletal muscle cells” (Oncotarget, 2017)

Test system: Akt phosphorylation
Assay: Akt phosphorylation, Western blot
Format: cell-based, rat
Settings: L6 cells with C2cer 10μM or Prep1 transfection, insulin 100nM
Experimental: Figure 5 Effect of Prep1(54-72) peptide on Akt phosphorylation and PGC-1α and GLUT4 protein levels (A-B) L6 control and Prep1 overexpressing cells were stimulated with Insulin (100nM) and/or C2cer (10μM) and incubated with Prep1(54-72). Protein lysates were analyzed by Western blot using antibodies for pAkt, Akt and for the beta-actin, as a loading control. (C) PGC-1α and GLUT4 protein levels were measured by using specific antibodies for these proteins and beta-actin antibody was used as loading control. Blots were detected by ECL and autoradiography. The autoradiographs are representative of four independent experiments. Asterisks denote statistically significant differences (*p<0.05; **p<0.01; ***p<0.001).
Total cell lysates were obtained and separated by SDS-PAGE. Briefly, cells were solubilized with lysis buffer containing 50mM HEPES, 150mM NaCl, 10mM EDTA, 10mM Na4P2O7, 2mM sodium orthovanadate, 50mM NaF, 1mM phenylmethylsulfonyl fluoride, 10μg/ml aprotinin, 10μg/ml leupeptin, pH 7.4, and 1% (v/v) Triton X-100. Lysates were clarified by centrifugation at 12,000g for 20 minutes at 4°C. The protein concentrations in the cell lysates were measured using a Bio-Rad DC (detergent compatible) assay. Immunoprecipitation and Western blot analysis have been performed as previously described.

Ac-KQAIYRHPLFPLLALLFEK-NH2 [Prep1(54-72)]
effect on insulin stimulated Akt phosphorylation: rescued insulin effect
